Results reported in ChEMBL document CHEMBL3879901, “Substituted isoquinolin-1(2H)-ones, and methods of use thereof” (2012).
pEC50, pIC50: −log10 of the molar value.

Key:
[1] = target: Phosphatidylinositol 4,5-bisphosphate 3-kinase catalytic subunit gamma isoform (Homo sapiens, UniProt P48736); test: Inhibition of recombinant human C-terminal His6-tagged p110gamma expressed in insect cells using phosphatidylinositol as substrate in presence of gamma-32P-ATP after 5 mins by thin layer chromatographic method
Phosphatidylinositol 4,5-bisphosphate 3-kinase catalytic subunit gamma isoform, sequence (P48736 whole entry, canonical isoform): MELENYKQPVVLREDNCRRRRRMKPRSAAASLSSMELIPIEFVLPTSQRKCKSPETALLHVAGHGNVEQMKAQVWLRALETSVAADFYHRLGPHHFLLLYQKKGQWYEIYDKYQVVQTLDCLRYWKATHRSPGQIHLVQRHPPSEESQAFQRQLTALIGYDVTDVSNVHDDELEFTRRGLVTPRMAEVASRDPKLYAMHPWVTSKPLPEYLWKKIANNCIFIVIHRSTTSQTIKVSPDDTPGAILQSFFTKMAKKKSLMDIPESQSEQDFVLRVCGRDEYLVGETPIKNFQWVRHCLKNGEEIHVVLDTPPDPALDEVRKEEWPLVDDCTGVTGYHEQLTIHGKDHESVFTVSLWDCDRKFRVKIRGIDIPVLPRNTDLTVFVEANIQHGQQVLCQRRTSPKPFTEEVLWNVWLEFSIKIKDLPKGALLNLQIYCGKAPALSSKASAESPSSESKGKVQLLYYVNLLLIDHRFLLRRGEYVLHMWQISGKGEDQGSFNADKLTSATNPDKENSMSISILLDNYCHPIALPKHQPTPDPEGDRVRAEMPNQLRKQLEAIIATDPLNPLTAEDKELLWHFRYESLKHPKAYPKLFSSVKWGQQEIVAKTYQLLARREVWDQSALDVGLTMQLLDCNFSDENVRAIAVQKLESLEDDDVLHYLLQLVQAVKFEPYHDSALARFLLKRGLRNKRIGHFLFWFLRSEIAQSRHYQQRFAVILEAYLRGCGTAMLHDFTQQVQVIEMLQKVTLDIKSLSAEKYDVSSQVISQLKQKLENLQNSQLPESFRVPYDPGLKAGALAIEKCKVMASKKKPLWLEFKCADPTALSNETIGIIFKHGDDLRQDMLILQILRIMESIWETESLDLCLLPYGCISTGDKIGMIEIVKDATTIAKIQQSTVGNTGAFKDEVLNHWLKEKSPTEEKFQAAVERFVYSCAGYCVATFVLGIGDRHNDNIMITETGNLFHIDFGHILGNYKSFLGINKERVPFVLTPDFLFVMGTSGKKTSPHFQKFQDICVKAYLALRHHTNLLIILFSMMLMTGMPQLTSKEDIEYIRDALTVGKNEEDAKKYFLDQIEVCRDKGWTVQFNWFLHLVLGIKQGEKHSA

[2] = target: PI3-kinase p110-delta/p85-alpha (Homo sapiens, UniProt O00329); test: Inhibition of N-terminal His6-tagged recombinant full-length human p110delta/untagged recombinant full length p85alpha expressed in baculovirus infected Sf21 cells using phosphatidylinositol as substrate in presence of gamma-32P-ATP after 5 mins by thin layer chromatographic method
PI3-kinase p110-delta/p85-alpha, sequence (P27986 whole entry): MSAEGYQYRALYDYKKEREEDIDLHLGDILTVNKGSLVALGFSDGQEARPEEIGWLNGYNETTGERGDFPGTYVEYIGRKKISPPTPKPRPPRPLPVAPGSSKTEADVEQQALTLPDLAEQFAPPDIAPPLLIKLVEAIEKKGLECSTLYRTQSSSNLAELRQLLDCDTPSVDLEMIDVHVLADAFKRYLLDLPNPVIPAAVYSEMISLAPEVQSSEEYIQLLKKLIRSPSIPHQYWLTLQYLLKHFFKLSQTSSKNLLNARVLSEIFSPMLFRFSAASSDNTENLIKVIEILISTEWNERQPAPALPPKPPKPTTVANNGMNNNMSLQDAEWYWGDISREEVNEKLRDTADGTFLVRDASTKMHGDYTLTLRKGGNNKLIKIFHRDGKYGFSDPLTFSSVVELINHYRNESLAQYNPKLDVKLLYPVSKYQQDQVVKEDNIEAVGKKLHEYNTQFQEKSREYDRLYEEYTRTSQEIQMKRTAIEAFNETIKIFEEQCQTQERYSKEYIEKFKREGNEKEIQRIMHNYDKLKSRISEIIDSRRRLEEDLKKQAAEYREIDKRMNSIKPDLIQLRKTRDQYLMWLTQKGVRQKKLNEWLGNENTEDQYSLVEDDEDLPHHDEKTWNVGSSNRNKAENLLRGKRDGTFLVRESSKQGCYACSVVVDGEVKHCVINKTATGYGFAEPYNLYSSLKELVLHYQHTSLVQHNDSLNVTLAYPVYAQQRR
PI3-kinase p110-delta/p85-alpha, sequence (O00329 whole entry): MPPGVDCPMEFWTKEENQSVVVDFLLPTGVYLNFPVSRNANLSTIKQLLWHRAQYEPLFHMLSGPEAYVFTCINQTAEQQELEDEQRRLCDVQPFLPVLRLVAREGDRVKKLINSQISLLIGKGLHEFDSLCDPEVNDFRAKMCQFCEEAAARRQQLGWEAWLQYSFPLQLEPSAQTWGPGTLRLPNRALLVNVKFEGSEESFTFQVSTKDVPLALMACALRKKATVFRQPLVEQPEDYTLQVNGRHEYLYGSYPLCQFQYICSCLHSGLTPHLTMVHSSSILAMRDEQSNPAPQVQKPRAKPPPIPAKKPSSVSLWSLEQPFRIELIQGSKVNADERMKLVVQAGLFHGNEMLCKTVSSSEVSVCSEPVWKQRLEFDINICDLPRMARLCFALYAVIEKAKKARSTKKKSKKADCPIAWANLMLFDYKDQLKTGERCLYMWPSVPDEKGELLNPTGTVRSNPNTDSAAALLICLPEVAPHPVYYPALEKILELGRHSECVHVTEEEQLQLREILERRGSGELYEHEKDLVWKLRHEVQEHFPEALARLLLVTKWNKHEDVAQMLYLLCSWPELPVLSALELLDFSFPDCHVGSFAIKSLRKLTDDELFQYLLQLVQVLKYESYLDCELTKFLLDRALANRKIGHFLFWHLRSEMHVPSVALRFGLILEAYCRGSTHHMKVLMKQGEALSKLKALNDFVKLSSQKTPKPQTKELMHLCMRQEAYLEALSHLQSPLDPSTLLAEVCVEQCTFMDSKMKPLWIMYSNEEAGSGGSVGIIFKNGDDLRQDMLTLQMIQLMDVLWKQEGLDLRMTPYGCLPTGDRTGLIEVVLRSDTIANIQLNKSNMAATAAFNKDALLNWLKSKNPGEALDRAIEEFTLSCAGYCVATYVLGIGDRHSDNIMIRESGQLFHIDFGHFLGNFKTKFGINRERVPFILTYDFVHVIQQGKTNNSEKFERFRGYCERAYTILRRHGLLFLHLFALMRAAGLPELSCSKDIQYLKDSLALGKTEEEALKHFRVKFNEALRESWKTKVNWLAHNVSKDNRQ

[3] = Antiproliferative activity against Balb/c mouse splenic B cells preincubated for 30 mins followed by LPS or F(ab')2 donkey anti-mouse IgM and recombinant mouse IL4 stimulation measured after 72 hrs by Alamar Blue reduction assay; type: functional, cell-based
PI3K p110 beta/p85 alpha = PI3K p110 beta/p85 alpha (Homo sapiens, UniProt P42338); test: Inhibition of N-terminal His6-tagged recombinant full-length human p110beta/untagged recombinant full length p85alpha expressed in baculovirus infected Sf21 cells using phosphatidylinositol as substrate in presence of gamma-32P-ATP after 5 mins by thin layer chromatographic method
PI3K p110 beta/p85 alpha, sequence (P27986 whole entry): as the sequence (P27986 whole entry) above
PI3K p110 beta/p85 alpha, sequence (P42338 whole entry): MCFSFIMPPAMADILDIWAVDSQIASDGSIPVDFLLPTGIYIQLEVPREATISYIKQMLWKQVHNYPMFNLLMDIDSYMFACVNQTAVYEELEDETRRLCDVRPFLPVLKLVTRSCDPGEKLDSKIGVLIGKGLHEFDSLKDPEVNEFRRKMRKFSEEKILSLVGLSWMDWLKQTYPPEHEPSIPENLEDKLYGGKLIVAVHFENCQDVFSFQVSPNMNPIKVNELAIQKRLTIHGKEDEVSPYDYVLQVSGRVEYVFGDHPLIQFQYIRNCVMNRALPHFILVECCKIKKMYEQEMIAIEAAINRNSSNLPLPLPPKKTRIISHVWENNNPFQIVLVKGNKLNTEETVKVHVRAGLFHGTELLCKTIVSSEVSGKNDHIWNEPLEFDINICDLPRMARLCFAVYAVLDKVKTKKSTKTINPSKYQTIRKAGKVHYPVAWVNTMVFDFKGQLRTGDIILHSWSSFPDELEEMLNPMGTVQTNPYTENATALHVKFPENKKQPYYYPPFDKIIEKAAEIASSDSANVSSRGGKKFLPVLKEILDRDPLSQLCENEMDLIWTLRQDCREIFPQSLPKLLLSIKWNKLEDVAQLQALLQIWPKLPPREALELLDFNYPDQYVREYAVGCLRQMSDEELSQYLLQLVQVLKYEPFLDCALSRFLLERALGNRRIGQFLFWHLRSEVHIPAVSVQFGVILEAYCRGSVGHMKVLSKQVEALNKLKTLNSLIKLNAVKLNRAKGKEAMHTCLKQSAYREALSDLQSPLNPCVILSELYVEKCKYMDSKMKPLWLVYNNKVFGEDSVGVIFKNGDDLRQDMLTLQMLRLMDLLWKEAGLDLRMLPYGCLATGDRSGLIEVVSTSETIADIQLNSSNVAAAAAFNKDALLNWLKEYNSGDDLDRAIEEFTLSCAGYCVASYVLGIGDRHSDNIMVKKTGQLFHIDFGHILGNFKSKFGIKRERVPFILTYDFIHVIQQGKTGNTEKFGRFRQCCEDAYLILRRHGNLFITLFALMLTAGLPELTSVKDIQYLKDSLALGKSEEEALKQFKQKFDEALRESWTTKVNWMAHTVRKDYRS

[4] = target: PI3-kinase p110-alpha/p85-alpha (Homo sapiens, UniProt P42336); test: Inhibition of N-terminal His6-tagged recombinant full-length human p110alpha/untagged recombinant full length human p85alpha expressed in baculovirus infected Sf21 cells using phosphatidylinositol as substrate in presence of gamma-32P-ATP after 5 mins by thin layer chromatographic method
PI3-kinase p110-alpha/p85-alpha, sequence (P27986 whole entry): as the sequence (P27986 whole entry) above
PI3-kinase p110-alpha/p85-alpha, sequence (P42336 whole entry): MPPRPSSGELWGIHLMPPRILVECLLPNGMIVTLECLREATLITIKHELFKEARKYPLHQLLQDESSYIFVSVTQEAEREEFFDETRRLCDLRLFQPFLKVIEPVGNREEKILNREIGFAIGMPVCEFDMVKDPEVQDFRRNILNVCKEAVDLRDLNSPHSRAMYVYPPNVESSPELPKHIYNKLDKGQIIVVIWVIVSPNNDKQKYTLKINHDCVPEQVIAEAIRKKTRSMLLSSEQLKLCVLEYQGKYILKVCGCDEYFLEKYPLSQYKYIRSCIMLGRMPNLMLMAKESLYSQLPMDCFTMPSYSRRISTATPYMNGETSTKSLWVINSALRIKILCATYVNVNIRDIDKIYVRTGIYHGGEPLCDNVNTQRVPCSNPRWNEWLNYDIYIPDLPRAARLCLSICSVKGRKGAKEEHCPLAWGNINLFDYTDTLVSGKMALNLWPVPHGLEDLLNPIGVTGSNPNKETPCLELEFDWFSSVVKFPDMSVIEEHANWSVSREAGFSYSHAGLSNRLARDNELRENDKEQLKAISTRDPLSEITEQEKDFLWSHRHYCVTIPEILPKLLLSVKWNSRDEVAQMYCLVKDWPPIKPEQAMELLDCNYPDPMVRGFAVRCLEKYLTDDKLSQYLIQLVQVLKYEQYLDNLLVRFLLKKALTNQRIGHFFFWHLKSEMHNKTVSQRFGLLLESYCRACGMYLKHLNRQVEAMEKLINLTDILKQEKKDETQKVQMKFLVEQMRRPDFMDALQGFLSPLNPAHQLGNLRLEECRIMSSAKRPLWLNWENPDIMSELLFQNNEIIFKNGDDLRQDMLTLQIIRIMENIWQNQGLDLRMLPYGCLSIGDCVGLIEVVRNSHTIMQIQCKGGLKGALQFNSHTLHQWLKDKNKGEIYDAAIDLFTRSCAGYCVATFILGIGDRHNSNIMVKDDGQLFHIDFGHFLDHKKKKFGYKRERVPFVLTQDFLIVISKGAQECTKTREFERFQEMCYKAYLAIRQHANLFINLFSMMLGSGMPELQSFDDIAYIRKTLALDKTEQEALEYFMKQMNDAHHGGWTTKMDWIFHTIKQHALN

Compound | pIC50 [1] | pIC50 [2] | pEC50 [3] | pIC50 (PI3K p110 beta/p85 alpha) | pIC50 [4]
Cc1cccnc1-n1c(Cn2nc(-c3ccc4oc(N)nc4c3)c3c(N)ncnc32)cc2cccc(C)c2c1=O | > 7.00 | > 7.00 |  |  | 
Cc1cccc2cc(Cn3nc(I)c4c(N)ncnc43)n(-c3ccccc3F)c(=O)c12 | > 6.00 | > 7.00 | > 5.00 |  | 
Cc1cccc2cc([C@H](C)Nc3nc(N)ncc3Cl)n(-c3ccccc3)c(=O)c12 | > 7.00 | > 7.00 | > 7.00 |  | 
Cc1cccc2cc([C@H](C)Nc3nc(F)nc4[nH]cnc34)n(-c3ccccc3)c(=O)c12 | > 7.00 | > 7.00 | > 7.00 |  | 
Cc1ccccc1-n1c(Cn2nc(CF)c3c(N)ncnc32)cc2cccc(C)c2c1=O | > 7.00 | > 7.00 | > 7.00 |  | 
Cc1cccc2cc(C(C)Nc3ncnc4[nH]cnc34)n(C3CCCC3)c(=O)c12 (stereo unspecified) | > 7.00 | > 7.00 | > 7.00 |  | 
CC(=O)Nc1nc2ccc(-c3nn(Cc4cc5cccc(C)c5c(=O)n4-c4ccccc4C)c4ncnc(N)c34)cc2o1 | > 7.00 | > 7.00 |  |  | 
Cc1ccccc1-n1c(Cn2nc(-c3nn[nH]n3)c3c(N)ncnc32)cc2cccc(C)c2c1=O | > 7.00 | > 7.00 | > 5.00 |  | 
Cc1cccc2cc(Cn3nc(-c4ccc5nc(N)oc5c4)c4c(N)ncnc43)n(-c3ccccc3)c(=O)c12 | 6.00 to 7.00 |  | > 5.00 |  | 
CC(=O)Nc1nc2ccc(-c3nn(Cc4cc5cccc(C)c5c(=O)n4-c4ccccc4C)c4ncnc(N)c34)cc2[nH]1 | > 7.00 | > 7.00 | > 7.00 |  | 
Cc1ccccc1-n1c(Cn2nc(-c3ccc4nc(N)oc4c3)c3c(N)ncnc32)cc2cccc(C)c2c1=O | > 7.00 | > 7.00 | > 7.00 |  | 
Cc1cccnc1-n1c(Cn2nc(-c3cccc(O)c3)c3c(N)ncnc32)cc2ccccc2c1=O | > 5.00 | > 6.00 |  |  | 
Cc1cccc2cc([C@H](C)Nc3nc(N)nc4[nH]cnc34)n(-c3ccccc3)c(=O)c12 | > 7.00 | > 7.00 |  |  | 
Cc1cccc2cc(Cn3nc(-c4ccc5oc(N)nc5c4)c4c(N)ncnc43)n(-c3ccccc3)c(=O)c12 | > 7.00 | > 7.00 | > 7.00 |  | 
Cc1ccccc1-n1c(Cn2nc(-c3ccc4sc(N)nc4c3)c3c(N)ncnc32)cc2cccc(C)c2c1=O | > 7.00 | > 7.00 | > 7.00 |  | 
CCC(Nc1ncnc2[nH]cnc12)c1cc2cccc(C)c2c(=O)n1-c1ccccc1 (stereo unspecified) | > 7.00 | > 7.00 | > 7.00 |  | 
Cc1cccc2cc([C@H](C)Nc3ncnc4[nH]nc(Cl)c34)n(-c3ccccc3)c(=O)c12 | > 7.00 | > 7.00 |  |  | 
Cc1cccc2cc(Cn3nc(-c4ccc5nc(N)[nH]c5c4)c4c(N)ncnc43)n(-c3ccccc3)c(=O)c12 | > 7.00 | > 7.00 | > 7.00 |  | 
Cc1cccc2cc([C@H](C)Nc3ncnc4[nH]ccc34)n(-c3ccccc3)c(=O)c12 | > 7.00 | > 7.00 | > 7.00 |  | 
CC(=O)Nc1nc2ccc(-c3nn(Cc4cc5cccc(C)c5c(=O)n4-c4ccccc4)c4ncnc(N)c34)cc2[nH]1 | > 7.00 |  |  |  | 
Cc1cccc2cc([C@H](C)Nc3ncnc4[nH]cnc34)n(C3CCC3)c(=O)c12 | > 7.00 |  | > 7.00 |  | 
Cc1cccc2cc([C@H](C)Nc3nc(N)ncc3C(F)(F)F)n(-c3ccccc3)c(=O)c12 | > 7.00 | > 7.00 |  |  | 

Compound | pIC50 [1] | pIC50 [2] | pEC50 [3] | pIC50 (PI3K p110 beta/p85 alpha) | pIC50 [4]
Cc1cccc2cc(Cn3nc(-c4ccc5sc(N)nc5c4)c4c(N)ncnc43)n(-c3ccccc3)c(=O)c12 | > 7.00 | > 7.00 | > 7.00 |  | 
Cc1cccc2cc(Cn3nc(-c4ccc5oc(N)nc5c4)c4c(N)ncnc43)n(C3CCC3)c(=O)c12 | > 7.00 | > 7.00 | > 7.00 |  | 
CC(=O)Nc1nc2cc(-c3nn(Cc4cc5cccc(C)c5c(=O)n4-c4ccccc4C)c4ncnc(N)c34)ccc2o1 | > 7.00 | > 7.00 | > 7.00 |  | 
Cc1cccc2cc([C@H](C)Nc3ncnc4[nH]cnc34)n(C(C)C)c(=O)c12 | > 7.00 |  | > 7.00 |  | 
CCC(Nc1ncnc2[nH]cnc12)c1cc2cccc(C)c2c(=O)n1-c1ccc(F)cc1 (stereo unspecified) | > 7.00 | > 7.00 | > 7.00 |  | 
Cc1cccc2cc(C(C)Nc3ncnc4[nH]cnc34)n(-c3ccc(F)cc3)c(=O)c12 (stereo unspecified) | > 7.00 | > 7.00 | > 7.00 |  | 
Cc1cccc2cc([C@H](C)Nc3ncnc4[nH]cnc34)n(-c3ccccc3)c(=O)c12 | > 7.00 | > 7.00 | > 7.00 |  | 
Cc1cccc2cc([C@H](C)Nc3nc(Cl)nc4[nH]cnc34)n(-c3ccccc3)c(=O)c12 | > 7.00 | > 7.00 | > 7.00 |  | 
CC(=O)Nc1nc2ccc(-c3nn(Cc4cc5cccc(C)c5c(=O)n4-c4ccccc4)c4ncnc(N)c34)cc2s1 |  | > 7.00 | > 7.00 | > 5.00 | > 6.00
Cc1ccccc1-n1c(Cn2nc(-c3ccc4nc(N)ccc4c3)c3c(N)ncnc32)cc2cccc(C)c2c1=O |  | > 7.00 | > 7.00 | > 5.00 | > 6.00
Cc1cccc2cc(Cn3nc(C#CC4CC4)c4c(N)ncnc43)n(-c3ccccc3F)c(=O)c12 | < 5.00 | > 6.00 | > 6.00 |  | 
Cc1cccc2cc(Cn3cnc4c(N)ncnc43)n(-c3ccccc3F)c(=O)c12 | < 5.00 | > 5.00 | > 5.00 |  | 
Cc1cccc2cc(Cn3nc(-c4cccc(O)c4)c4c(N)ncnc43)n(-c3ccccc3O)c(=O)c12 |  | > 7.00 | > 7.00 | > 5.00 | < 5.00
Cc1ccccc1-n1c(Cn2nc(-c3ccc4ncnc(N)c4c3)c3c(N)ncnc32)cc2cccc(C)c2c1=O |  | > 7.00 | > 6.00 | < 5.00 | > 5.00
Cc1ccccc1-n1c(Cn2nc(C#C[C@H](C)O)c3c(N)ncnc32)cc2cccc(C)c2c1=O |  | > 6.00 | > 6.00 | > 5.00 | < 5.00
Cc1cccc2cc(Cn3nc(-c4cc(O)cc(F)c4)c4c(N)ncnc43)n(-c3ccccc3O)c(=O)c12 |  | > 7.00 | > 7.00 | > 6.00 | > 5.00
CCn1c(Cn2nc(-c3ccc4nc(NC(C)=O)sc4c3)c3c(N)ncnc32)cc2cccc(C)c2c1=O |  | > 7.00 | > 7.00 | > 6.00 | > 4.00
Cc1cccc2cc([C@H](C)Nc3ncnc4[nH]cnc34)n(-c3cccc(F)c3)c(=O)c12 | > 7.00 |  | > 7.00 |  | 
Cc1ccccc1-n1c(Cn2nc(-c3cc(O)cc(F)c3)c3c(N)nccc32)cc2cccc(C)c2c1=O |  | > 7.00 | > 7.00 | > 5.00 | > 5.00
Cc1cccc2cc(Cn3nc(-c4cc(O)cc(F)c4)c4c(N)ncnc43)n(C3CC3)c(=O)c12 |  | > 7.00 | > 7.00 | > 7.00 | > 6.00
Nc1ncnc2c1c(-c1cc(O)cc(F)c1)nn2Cc1cc2cccc(Cl)c2c(=O)n1C1CC1 |  | > 7.00 | > 7.00 | > 7.00 | > 4.00
Cc1cccc2cc(Cn3nc(-c4cc(O)cc(F)c4)c4c(N)ncnc43)n(-c3ccccc3)c(=O)c12 |  | > 7.00 | > 7.00 | > 5.00 | > 6.00
